Columns and labels:
[1] = system: colon cancer (HT-29); test: Cell confluence of tumor cell line grown with telotristat ethyl; assay type: cell-based; settings: HT-29 cells; 0, 5, 15 and 30 μM telotristat ethyl; 24 to 96 hours; impact ranked between 94T778 and TFK-1
Description: (§1) This example provides experiments assessing the effects of telotristat ethyl on three aggressive cancer cell lines—liposarcoma (94T778), colon cancer (HT-29), and cholangiocarcinoma (TFK-1)—and three “normal” cell lines—fallopian tube epithelium (FT240), ovarian surface epithelium (OSE22), and first trimester placental fibroblasts (FTP).
(§2) The cells were grown with 0, 5, 15 and 30 μM telotristat ethyl, plated into four-chambered slides with an initial confluence of at least 30%, and cultured for 24 to 96 hours. At the end of each 24-hour period, cell density was measured with hematoxylin, and the presence of 5-HT was assessed by immunohistochemistry. Experiments were performed in triplicate. Cell confluence was determined, and the 5-HT expression was recorded as an H-score.

[2] = system: liposarcoma (94T778); test: as above; assay type: cell-based; settings: 94T778 cells; 0, 5, 15 and 30 μM telotristat ethyl; 24 to 96 hours; confluence decreased progressively with concentration
Description: as §1, §2

[3] = system: human intrahepatic CCA cells CCLP-1; test: Animal survival in CCLP-1 peritoneal dissemination model; assay type: in vivo, NOD/SCID mice; settings: two weeks therapy: gemcitabine 50 mg/kg 2×wk, cisplatin 2.5 mg/kg 2×wk, nab-paclitaxel 5 mg/kg 2×wk, telotristat ethyl 100 mg/kg 5×wk, controls 47 days
Description: (§3) The human intrahepatic CCA cells CCLP-1 were cultured in DMEM containing 10% FBS. Animal survival was studied in a peritoneal dissemination model, and a tumor growth study was performed in subcutaneous xenografts using 4-6 weeks old female NOD/SCID mice by injecting 10×10^6 CCLP-1 cells per mouse. Ten days after tumor cell injection, mice were randomized (n=4-7) to receive PBS (control), gemcitabine (50 mg/kg, 2×wk), cisplatin (2.5 mg/kg, 2×wk survival study, 1×wk tumor growth study), nab-paclitaxel (5 mg/kg, 2×wk) or telotristat ethyl (100 mg/kg, 5×wk), for two weeks. In the survival study, mice were monitored daily and euthanized when moribund, and survival was measured from the first day of treatment until death. In the tumor growth study, tumor size was measured twice per week and tumor volume was measured using the formula V=½ (L×W2, with L=length and W=width). Comparative statistics utilized one-way ANOVA, Student's t-test and logrank methods.

[4] = system: human intrahepatic CCA cells CCLP-1; test: Tumor growth study in CCLP-1 subcutaneous xenografts; assay type: in vivo, NOD/SCID mice
Description: as §3

[5] = system: CgA; test: Biomarker changes after TE initiation (TELEACE): CgA; assay type: in vivo, human; settings: n=15
Description: This example provides the effects of telotristat ethyl treatment on selected patient biomarkers (i.e., u5-HIAA; CgA; 5-HT; and NT-proBNP) in the retrospective, single arm study of Example 4.
The average (SD) duration of documented TE treatment was 12.0 (7.3) months with a median (IQR) of 9.0 (6.8, 15.2) months. In many cases, a patient received a TE dosage of 250 mg three times per day.
Patients with reported biomarker values below, at, or above normal range in pre-TE and post-TE initiation periods were described using proportions and frequencies. The biomarkers were assessed only among patients with complete biomarker assessment results in both pre-TE and post-TE initiation periods. McNemar's test was used to calculate P-values for the differences in paired proportions of patients with values above the upper limit of normal.
For the biomarker results below, the pre-TE initiation period is defined as 12 months before the index date (initiation of TE). The assessment closest to the index date during the pre-TE period was reported for each biomarker.
The post-TE initiation period is defined as a period from index date to the earlier of end of treatment with TE or date of chart abstraction. The assessment closest to the date of chart abstraction during the post-TE period was reported for each biomarker.
The data includes patients with reported biomarker values, units, and laboratory ranges during pre- and post-TE initiation periods. It excludes patients who had different biomarker units or laboratory ranges reported pre- and post-TE initiation.
The normal range was defined by reported laboratory lower limit of normal and upper limit of normal.
McNemar's test could not be performed because all patients had CgA value above normal range pre-TE initiation.

CCOC(=O)[C@@H](N)Cc1ccc(-c2cc(O[C@H](c3ccc(Cl)cc3-n3ccc(C)n3)C(F)(F)F)nc(N)n2)cc1 [telotristat ethyl, (S)-ethyl 2-amino-3-(4-(2-amino-6-((R)-1-(4-chloro-2-(3-methyl-1H-pyrazol-1-yl)phenyl)-2,2,2-trifluoroethoxy)pyrimidin-4-yl)phenyl)propanoate]
cell confluence [1]: between these two | cell confluence [2]: most impacted | animal survival [3]: 52 days | tumor weight at the completion of therapy ([4]; controls 0.187 g): 0.091 g | net tumor growth ([4]; gemcitabine 50 mg/kg 2×wk, cisplatin 2.5 mg/kg 1×wk, nab-paclitaxel 5 mg/kg 2×wk, telotristat ethyl 100 mg/kg 5×wk, two weeks, controls 199 mm^3): 93 mm^3 | patients with CgA above normal range pre-TE who had normal CgA value post-TE initiation [5]: ~30% | CgA At normal range Post-TE, n (%) ([5]; pre-TE 0 (0)): 4 (26.7) n (%) | CgA Below normal range Post-TE, n (%) ([5]; pre-TE 0 (0)): 0 (0) n (%) | CgA Above normal range Post-TE, n (%) ([5]; pre-TE 15 (100.0)): 11 (73.3) n (%)
